Source: paper PMC9728198, “Characterization of Two Self-Sufficient Monooxygenases, CYP102A15 and CYP102A170, as Long-Chain Fatty Acid Hydroxylases” (Journal of Microbiology and Biotechnology, 2020)
Where “and” joins values, the source holds several entries; their conditions need not be identical. Equal values may be shown once. Read-outs that look alike come from different tables or passages of the source.

How the values were obtained:
CYP102A170 [1] = target: T1, CYP102A170 (Paenibacillus sp., UniProt A0A2U8SZJ5); assay: Spectral substrate binding titration (low-spin to high-spin Soret shift)
Protocol: (§1) The binding affinity was evaluated by spectrometrically analyzing the enzyme binding of each substrate.
(§2) At the beginning, substrates were selected as fatty acids with different chain lengths and the unsaturation extent was tested for enzyme binding capacity. Substrate binding was observed by alternating from low-spin heme iron with a Soret band maximum at 419 nm in the UV-visible spectrum to high-spin heme iron with a Soret band maximum at 389 nm (Figs. 4, S3, and S4).

CYP102A15 [2] = target: T2, CYP102A15 (Bacillus sp. (in: firmicutes), UniProt A0A2S1UG59); assay: NADPH consumption assay and kinetic parameters; conditions: for CE (coupling efficiency) / PFR (product formation rate) / Km: CYP102A15; for Km: read-out: Km (Michaelis–Menten constant)
Protocol: (§3) The NADPH consumption assay was performed at 340 nm. […] The total volume of the reaction was 250 μl. The obtained data were analyzed using GraphPad Prism software, and experiments were replicated at least three times.
(§4) Saturated fatty acids, unsaturated fatty acids and other cyclic compounds were the three main types of substrates used to determine the NADPH oxidation rate. […] The coupling efficiencies, product formation rates (PFR), and Michaelis–Menten constants (Km) of CYP102A15 and CYP102A170 were also investigated.

CYP102A15 [3] = target: T2, CYP102A15; assay: Spectral substrate binding titration (low-spin to high-spin Soret shift)
Protocol: as §1, §2
CCCCCCCCCCCCCC(=O)O = assay: purified protein, by the assay type
Protocol: as §3, §4

CYP102A170 [4] = target: T1, CYP102A170
Protocol: as §3, §4

CYP102A170 [5] = target: T1, CYP102A170; assay: NADPH consumption assay and kinetic parameters; conditions: for Km: read-out: Km (Michaelis–Menten constant)
Protocol: as §3, §4

[6] = read-out: Kd (dissociation constant), CYP102A15, single-binding model for spectral change ΔA (A389–A419), 1 μM of protein
[7] = read-out: Kd (dissociation constant), CYP102A170, single-binding model for spectral change ΔA (A390–A420), 1 μM of protein

T2 sequence (A0A2S1UG59 1-1047): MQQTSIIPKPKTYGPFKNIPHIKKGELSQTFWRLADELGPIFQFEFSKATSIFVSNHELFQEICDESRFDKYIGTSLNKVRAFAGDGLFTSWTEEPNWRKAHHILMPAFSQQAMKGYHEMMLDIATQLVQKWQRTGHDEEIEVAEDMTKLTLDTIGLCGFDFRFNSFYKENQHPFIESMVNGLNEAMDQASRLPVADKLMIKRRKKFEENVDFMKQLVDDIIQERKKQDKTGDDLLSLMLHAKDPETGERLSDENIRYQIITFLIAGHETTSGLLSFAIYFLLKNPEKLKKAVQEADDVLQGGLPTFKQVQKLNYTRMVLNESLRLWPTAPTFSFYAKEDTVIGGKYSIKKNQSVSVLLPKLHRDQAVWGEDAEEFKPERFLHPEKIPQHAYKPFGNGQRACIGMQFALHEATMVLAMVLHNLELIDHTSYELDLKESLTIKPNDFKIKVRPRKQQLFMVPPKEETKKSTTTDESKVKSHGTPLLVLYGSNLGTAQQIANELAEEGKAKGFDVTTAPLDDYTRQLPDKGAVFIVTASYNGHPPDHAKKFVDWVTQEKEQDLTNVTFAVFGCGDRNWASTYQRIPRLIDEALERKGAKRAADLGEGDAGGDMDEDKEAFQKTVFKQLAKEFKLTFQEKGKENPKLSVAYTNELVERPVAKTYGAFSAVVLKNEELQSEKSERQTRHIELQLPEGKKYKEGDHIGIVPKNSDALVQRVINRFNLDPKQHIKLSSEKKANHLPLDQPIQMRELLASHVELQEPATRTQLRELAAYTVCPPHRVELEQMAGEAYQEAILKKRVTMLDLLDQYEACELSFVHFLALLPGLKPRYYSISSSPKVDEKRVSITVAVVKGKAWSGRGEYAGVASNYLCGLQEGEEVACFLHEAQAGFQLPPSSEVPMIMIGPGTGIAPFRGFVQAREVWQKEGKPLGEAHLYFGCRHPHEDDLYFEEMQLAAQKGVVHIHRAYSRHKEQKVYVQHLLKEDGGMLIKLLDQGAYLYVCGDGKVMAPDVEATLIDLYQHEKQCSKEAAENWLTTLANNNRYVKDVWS
T1 sequence (A0A2U8SZJ5 1-1057 limits assumed): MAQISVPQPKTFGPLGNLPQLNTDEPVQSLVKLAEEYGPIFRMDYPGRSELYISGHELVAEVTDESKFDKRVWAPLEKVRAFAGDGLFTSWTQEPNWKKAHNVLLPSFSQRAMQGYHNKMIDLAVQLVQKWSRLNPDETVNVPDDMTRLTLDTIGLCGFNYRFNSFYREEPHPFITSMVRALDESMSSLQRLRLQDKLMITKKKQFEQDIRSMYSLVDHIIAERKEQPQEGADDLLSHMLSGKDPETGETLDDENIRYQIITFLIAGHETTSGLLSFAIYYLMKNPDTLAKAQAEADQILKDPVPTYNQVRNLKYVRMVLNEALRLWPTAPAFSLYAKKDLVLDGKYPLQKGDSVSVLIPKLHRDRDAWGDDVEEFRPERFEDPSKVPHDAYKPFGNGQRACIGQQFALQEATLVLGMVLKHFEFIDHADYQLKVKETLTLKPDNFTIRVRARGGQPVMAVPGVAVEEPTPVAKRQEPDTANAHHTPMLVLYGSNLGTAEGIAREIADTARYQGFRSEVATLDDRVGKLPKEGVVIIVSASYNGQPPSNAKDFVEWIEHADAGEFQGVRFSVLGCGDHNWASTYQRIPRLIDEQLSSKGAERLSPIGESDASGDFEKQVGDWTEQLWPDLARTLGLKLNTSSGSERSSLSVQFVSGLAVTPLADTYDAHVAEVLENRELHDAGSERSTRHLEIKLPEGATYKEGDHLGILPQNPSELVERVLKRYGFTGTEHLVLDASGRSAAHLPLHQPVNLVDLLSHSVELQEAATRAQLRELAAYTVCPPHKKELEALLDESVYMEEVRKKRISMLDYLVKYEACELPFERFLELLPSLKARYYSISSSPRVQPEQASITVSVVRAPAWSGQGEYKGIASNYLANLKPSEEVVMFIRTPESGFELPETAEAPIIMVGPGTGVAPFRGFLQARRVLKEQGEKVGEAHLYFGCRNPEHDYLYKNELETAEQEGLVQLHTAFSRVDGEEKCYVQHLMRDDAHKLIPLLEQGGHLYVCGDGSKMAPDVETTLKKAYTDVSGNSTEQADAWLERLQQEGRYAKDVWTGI

Compound | Kd (CYP102A170 [1]) | CE (coupling efficiency) (CYP102A15 [2]) | PFR (product formation rate) (CYP102A15 [2]) | Kd (CYP102A15 [3]) | further results
CCCCCCCCCCCCCCCCCC(=O)O [Stearic acid] | 3.37 ± 0.2 µM |  |  |  | 
CCCCC/C=C\C/C=C\CCCCCCCC(=O)O [Linoleic acid] | 1.36 ± 0.23 µM | 68% | 2.70 ± 0.30 nmol/ nmol-P450/min | 13.9 ± 1.5 µM | Km (CYP102A15 [2]): 15.3 ± 4.7 µM
CYP102A170 (Paenibacillus sp.) |  |  |  |  | Km (CCCCCCCCCCCCCC(=O)O; other: CYP102A170): 17.4 µM and 17.43 ± 1.80 µM
CCCCCCCC/C=C\CCCCCCCC(=O)O [Oleic acid] | 2.23 ± 0.09 µM | 85% | 23.10 ± 5.30 nmol/ nmol-P450/min | 25.7 ± 2.8 µM | CE (coupling efficiency) (CYP102A170 [4]): 51%; Km (CYP102A15 [2]): 39.1 ± 6.9 µM; PFR (product formation rate) (CYP102A170 [5]): 41.50 ± 1.30 nmol/ nmol-P450/min; Km (CYP102A170 [5]): 430 ± 98 µM
CYP102A15 (Bacillus sp. (in: firmicutes)) |  |  |  |  | Km (CCCCCCCCCCCCCC(=O)O; other: CYP102A15): 386.10 ± 39.20 µM
CCOc1ccc2ccc(=O)oc2c1 [7-ethoxycoumarin] |  |  |  |  | NADPH consumption with cyclic compounds (in words) (CYP102A15 [2]; data not shown, sentence does not name the enzyme, b46 names CYP102A15): consumed the NADPH
CCCCCCCCCCCC(=O)O [Lauric acid] |  | 90% | 7.00 ± 0.10 nmol/ nmol-P450/min |  | CE (coupling efficiency) (CYP102A170 [4]): 72%; Km (CYP102A15 [2]): 21.7 ± 3.6 µM; PFR (product formation rate) (CYP102A170 [5]): 31.68 ± 0.70 nmol/ nmol-P450/min; Km (CYP102A170 [5]): 13.4 ± 1.3 µM; Kd (CYP102A15 [3]; [6]): 7.78 ± 0.7 µM; Kd (CYP102A170 [1]; [7]): 6.46 ± 0.3 µM
CCCCC/C=C\C/C=C\C/C=C\C/C=C\CCCC(=O)O [Arachidonic acid] |  |  |  | 29.8 ± 1.8 µM | 
CCCCCCCCCCCCCCCC(=O)O [Palmitic acid] | 5.01 ± 0.23 µM |  |  | 11 ± 1.3 µM | 
CC/C=C\C/C=C\C/C=C\C/C=C\C/C=C\CCCC(=O)O [Eicosapentaenoic acid] | 1.3 ± 0.08 µM |  |  | 18.8 ± 3.8 µM | 
CCCCCCCCCCCCCC(=O)O [Myristic acid] | 9.89 ± 0.39 µM | 80% | 35.91 ± 1.20 nmol/ nmol-P450/min | 14.9 ± 0.68 µM | CE (coupling efficiency) (CYP102A170 [5]): 67%; PFR (product formation rate) (CYP102A170 [5]): 37.52 ± 1.90 nmol/ nmol-P450/min
CCCCCCCCCCCCCCCCC(=O)O [Margaric acid] |  |  |  |  | NADPH consumption rate (CYP102A170 [5]; 250 μM NADPH, 200 μM fatty acid, 0.5–1 μM enzyme, 340 nm): 8.2 nmol/nmol-CYP/min; Kd (CYP102A15 [3]; [6]): 17.9 ± 1.21 µM; Kd (CYP102A170 [1]; [7]): 2.83 ± 0.17 µM
